Data as given in PubChem BioAssay (NCI).
Where “and” joins values, the source holds several entries; their conditions need not be identical. Equal entries are not always repeated.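 Following 48 hours of exposure in 96-well plates, responses at five concentrations were used to interpolate endpoints linearly. GI50 marks 50% less growth. TGI denotes the concentration required for complete inhibition of growth.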

Assays:
Experiment in all cases: NCI tumour cell line growth inhibition, 48 h
COLO 205 colon = test system: COLO 205 colon
MDA-MB-231 breast = test system: MDA-MB-231 breast
TK-10 renal = test system: TK-10 renal
HT29 colon = test system: HT29 colon
OVCAR-4 ovarian = test system: OVCAR-4 ovarian
A549 NSCLC = test system: A549 NSCLC
HOP-62 NSCLC = test system: HOP-62 NSCLC
OVCAR-5 ovarian = test system: OVCAR-5 ovarian
K-562 leukemia = test system: K-562 leukemia
HS 578T breast = test system: HS 578T breast
SK-MEL-28 melanoma = test system: SK-MEL-28 melanoma
MDA-N = test system: MDA-N
SK-MEL-2 melanoma = test system: SK-MEL-2 melanoma
SK-MEL-5 melanoma = test system: SK-MEL-5 melanoma
EKVX NSCLC = test system: EKVX NSCLC
UACC-62 melanoma = test system: UACC-62 melanoma
SW-620 colon = test system: SW-620 colon
HL-60(TB) leukemia = test system: HL-60(TB) leukemia
NCI-H23 lung = test system: NCI-H23 lung
DU-145 prostate = test system: DU-145 prostate
MCF7 breast = test system: MCF7 breast
A498 renal = test system: A498 renal
RXF 393 renal = test system: RXF 393 renal
786-0 renal = test system: 786-0 renal
KM12 colon = test system: KM12 colon
HOP-92 NSCLC = test system: HOP-92 NSCLC
HCT-15 colon = test system: HCT-15 colon
T-47D breast = test system: T-47D breast
MDA-MB-435 = test system: MDA-MB-435
SF-539 CNS = test system: SF-539 CNS
M14 melanoma = test system: M14 melanoma
HCC-2998 colon = test system: HCC-2998 colon
SNB-75 CNS = test system: SNB-75 CNS
ACHN renal = test system: ACHN renal
OVCAR-3 ovarian = test system: OVCAR-3 ovarian
SF-295 CNS = test system: SF-295 CNS
LOX IMVI melanoma = test system: LOX IMVI melanoma
PC-3 prostate = test system: PC-3 prostate
SNB-19 CNS = test system: SNB-19 CNS
CCRF-CEM leukemia = test system: CCRF-CEM leukemia
HCT-116 colon = test system: HCT-116 colon
NCI-H226 lung = test system: NCI-H226 lung
OVCAR-8 ovarian = test system: OVCAR-8 ovarian
RPMI-8226 leukemia = test system: RPMI-8226 leukemia
MOLT-4 leukemia = test system: MOLT-4 leukemia
SF-268 CNS = test system: SF-268 CNS
MALME-3M melanoma = test system: MALME-3M melanoma
SN12C renal = test system: SN12C renal
NCI/ADR-RES ovarian = test system: NCI/ADR-RES ovarian
SR leukemia = test system: SR leukemia
NCI-H460 lung = test system: NCI-H460 lung
SK-OV-3 ovarian = test system: SK-OV-3 ovarian
UACC-257 melanoma = test system: UACC-257 melanoma
CAKI-1 renal = test system: CAKI-1 renal
NCI-H522 lung = test system: NCI-H522 lung
U251 CNS = test system: U251 CNS
BT-549 breast = test system: BT-549 breast
IGROV1 ovarian = test system: IGROV1 ovarian
UO-31 renal = test system: UO-31 renal

CC(C)(C)c1cc(C(C)(C)C)c2c(c1O)OC(=O)CS2
TGI (COLO 205 colon): 9.89 µM | TGI (MDA-MB-231 breast): 52.4 µM | TGI (TK-10 renal): 21.7 µM | TGI (HT29 colon): 21.5 µM | TGI (OVCAR-4 ovarian): > 74.6 µM | TGI (A549 NSCLC): > 68.2 µM | TGI (HOP-62 NSCLC): 32.6 µM | TGI (OVCAR-5 ovarian): 41 µM | TGI (K-562 leukemia): 40.6 µM | TGI (HS 578T breast): 20 µM | TGI (SK-MEL-28 melanoma): > 54.5 µM | TGI (MDA-N): 14.8 µM | TGI (SK-MEL-2 melanoma): 28.1 µM | TGI (SK-MEL-5 melanoma): 9.77 µM | TGI (EKVX NSCLC): 25.6 µM | TGI (UACC-62 melanoma): 5.11 µM | TGI (SW-620 colon): 37.7 µM | TGI (HL-60(TB) leukemia): 10.7 µM | TGI (NCI-H23 lung): 18.1 µM | TGI (DU-145 prostate): 51.6 µM | TGI (MCF7 breast): > 31.2 µM | TGI (A498 renal): 66.9 µM | TGI (RXF 393 renal): 13.7 µM | TGI (786-0 renal): 28.5 µM | TGI (KM12 colon): 17.8 µM | TGI (HOP-92 NSCLC): > 47.7 µM | TGI (HCT-15 colon): 14.9 µM | TGI (T-47D breast): 22.9 µM | TGI (MDA-MB-435): 20.1 µM | TGI (SF-539 CNS): 12.5 µM | TGI (M14 melanoma): 41.2 µM | TGI (HCC-2998 colon): 14 µM | TGI (SNB-75 CNS): 6.84 µM | TGI (ACHN renal): > 41 µM | TGI (OVCAR-3 ovarian): 18.1 µM | TGI (SF-295 CNS): 18.8 µM | TGI (LOX IMVI melanoma): 24 µM | TGI (PC-3 prostate): > 64.7 µM | TGI (SNB-19 CNS): 21.5 µM | TGI (CCRF-CEM leukemia): > 25.3 µM | TGI (HCT-116 colon): 13.4 µM | TGI (NCI-H226 lung): 26.3 µM | TGI (OVCAR-8 ovarian): > 78 µM | TGI (RPMI-8226 leukemia): > 100 µM | TGI (MOLT-4 leukemia): > 45.8 µM | TGI (SF-268 CNS): 23.2 µM | TGI (MALME-3M melanoma): > 93.7 µM | TGI (SN12C renal): 21.8 µM | TGI (NCI/ADR-RES ovarian): 20.6 µM | TGI (SR leukemia): > 48.7 µM | TGI (NCI-H460 lung): 9.13 µM | TGI (SK-OV-3 ovarian): > 95.1 µM | TGI (UACC-257 melanoma): > 66.7 µM | TGI (CAKI-1 renal): > 62.7 µM | TGI (NCI-H522 lung): 14.3 µM | TGI (U251 CNS): 17.9 µM | TGI (BT-549 breast): 23.9 µM | TGI (IGROV1 ovarian): > 60.2 µM | TGI (UO-31 renal): 20.5 µM

O=C(O)c1cc2cc(OCc3ccccc3)ccc2[nH]1
TGI (COLO 205 colon): > 100 µM | TGI (MDA-MB-231 breast): > 100 µM | TGI (TK-10 renal): > 100 µM | GI50 (HT29 colon): > 100 µM | TGI (HT29 colon): > 100 µM | GI50 (OVCAR-4 ovarian): > 100 µM | TGI (OVCAR-4 ovarian): > 100 µM | TGI (A549 NSCLC): > 100 µM | TGI (HOP-62 NSCLC): > 100 µM | TGI (OVCAR-5 ovarian): > 100 µM | TGI (K-562 leukemia): > 100 µM | GI50 (HS 578T breast): > 85 µM | TGI (HS 578T breast): 77.4 µM and > 100 µM | GI50 (SK-MEL-28 melanoma): 8.32 µM | TGI (SK-MEL-28 melanoma): 61.7 µM and > 100 µM | TGI (MDA-N): > 100 µM | GI50 (SK-MEL-2 melanoma): > 100 µM | TGI (SK-MEL-2 melanoma): > 100 µM | TGI (SK-MEL-5 melanoma): > 100 µM | TGI (EKVX NSCLC): > 100 µM | TGI (UACC-62 melanoma): > 100 µM | TGI (SW-620 colon): > 100 µM | TGI (HL-60(TB) leukemia): > 100 µM | TGI (NCI-H23 lung): > 100 µM | TGI (DU-145 prostate): > 100 µM | GI50 (MCF7 breast): > 100 µM | TGI (MCF7 breast): > 100 µM | GI50 (A498 renal): 35.1 µM | TGI (A498 renal): > 100 µM | TGI (RXF 393 renal): > 100 µM | TGI (786-0 renal): > 100 µM | TGI (KM12 colon): > 100 µM | GI50 (HOP-92 NSCLC): 20.7 µM | TGI (HOP-92 NSCLC): 92.4 µM and > 100 µM | TGI (HCT-15 colon): > 100 µM | TGI (T-47D breast): > 100 µM | TGI (MDA-MB-435): > 100 µM | TGI (SF-539 CNS): > 100 µM | TGI (M14 melanoma): > 100 µM | TGI (HCC-2998 colon): > 100 µM | GI50 (SNB-75 CNS): 34.2 µM | TGI (SNB-75 CNS): > 100 µM | TGI (ACHN renal): > 100 µM | TGI (OVCAR-3 ovarian): > 100 µM | TGI (SF-295 CNS): > 100 µM | TGI (LOX IMVI melanoma): > 100 µM | TGI (PC-3 prostate): > 100 µM | GI50 (SNB-19 CNS): > 100 µM | TGI (SNB-19 CNS): > 100 µM | TGI (CCRF-CEM leukemia): > 100 µM | TGI (HCT-116 colon): > 100 µM | GI50 (NCI-H226 lung): > 100 µM | TGI (NCI-H226 lung): 93.1 µM and > 100 µM | TGI (OVCAR-8 ovarian): > 100 µM | TGI (RPMI-8226 leukemia): > 100 µM | TGI (MOLT-4 leukemia): > 100 µM | TGI (SF-268 CNS): > 100 µM | GI50 (MALME-3M melanoma): 0.198 µM | TGI (MALME-3M melanoma): 0.762 µM and 1.56 µM | TGI (SN12C renal): > 100 µM | TGI (NCI/ADR-RES ovarian): > 100 µM | TGI (SR leukemia): > 100 µM | TGI (NCI-H460 lung): > 100 µM | TGI (SK-OV-3 ovarian): > 100 µM | GI50 (UACC-257 melanoma): > 74 µM | TGI (UACC-257 melanoma): > 100 µM | GI50 (CAKI-1 renal): > 84.2 µM | TGI (CAKI-1 renal): > 100 µM | TGI (NCI-H522 lung): > 100 µM | TGI (U251 CNS): > 100 µM | GI50 (BT-549 breast): 59.1 µM | TGI (BT-549 breast): > 100 µM | GI50 (IGROV1 ovarian): 52.4 µM | TGI (IGROV1 ovarian): > 100 µM | GI50 (UO-31 renal): 1.92 µM | TGI (UO-31 renal): > 100 µM
